Values quoted from earlier work, collected in patent US5869086A, “Systems for the controlled release of pilocarpine” (LTS Lohmann Therapie-Systeme GmbH, priority 1993, dated 1999).

Columns and labels:
[1] = tested on: patients suffering from glaucoma (eye); settings: applied to the eye
adults = settings: systemic, single maximum dose for adults; German Federal Board of Health
[2] = tested on: postganglionic, parasympathetic acetylcholine receptors; settings: textbook

## CC[C@@H]1C(=O)OC[C@@H]1Cc1cncn1C [pilocarpine, (3S, 4R)-3-ethyl-4,5-dihydro-4-(1-methyl-1H-imidazole-5-ylmethyl)-2(3H)-furanone]
[1]
  duration of one application: 4 to 6 h
adults
  dosage at which risks are likely to arise: below 20 mg
[2]
  action on acetylcholine receptors: specifically stimulates the postganglionic, parasympathetic acetylcholine receptors
heart; high doses, effect on the heart
  hazard of high systemic doses: hazardous to patients' life and health
heart; textbook, general application
  impairment of the heart function compared with carbachol: impairment of the heart function is more distinct
